Here are results for seven compounds from article PMC12396409, “Screening and hit evaluation of a microbial metabolite library against the pathogenic Plasmodium falciparum and Toxoplasma gondii parasites” (International Journal for Parasitology: Drugs and Drug …, 2025).

Where two headings read alike, the source gives them in different places. Where a SMILES comes first, the peptide text is derived from it. [ ]: non-standard residue; d: D form. GABA = NCCCC(=O)O

The subject of experiment [1] is P. falciparum 3D7 parasites. Briefly: P. falciparum growth inhibition assay, 1-cycle (72 h treatment), SYBR DNA staining (library screen at 2 μg/mL and dose-response). The format is cell-based, Plasmodium falciparum.
Experiment [2] concerns P. falciparum 3D7 parasites. Description: P. falciparum growth inhibition assay, 2-cycle (120 h treatment), delayed-death screen and dose-response. It counts as cell-based, Plasmodium falciparum.
Experiment [3] deals with T. gondii RH strain (RH-Tub-eYFP) tachyzoites. Briefly: microbe, parasite or virus in culture. It counts as cell-based, Toxoplasma gondii. The note with it: T. gondii, 72 h, screen at 2 μg/mL; for percent parasite growth at 2 µg/mL: Toxoplasma gondii.
The mark [4] stands for this setting: P. falciparum, 72 h, screen at 2 μg/mL, replicate 1.
Where [5] appears, read: P. falciparum, 72 h, screen at 2 μg/mL, replicate 2.
The mark [6] stands for this setting: P. falciparum, 120 h, screen at 2 μg/mL, replicate 1.
Where [7] appears, read: P. falciparum, 120 h, screen at 2 μg/mL, replicate 2.

On to `CC(C)=CC(=O)C[C@H](C)c1ccc(C)cc1` [Turmerone], for which, in experiment [1] (setting [4]), the Pf_72h_%Growth_Rep1 worked out at 81.95%. Moreover, the Pf_72h_%Growth_Rep2 in experiment [1] (setting [5]) is reported as 115.94%. This compound also yielded a Pf_120h_%Growth_Rep1 in experiment [2] (setting [6]) of 78.99%. For the same compound, the Pf_120h_%Growth_Rep2 in experiment [2] (setting [7]) was 84.67%. Further, the Tg_72h_%Growth_Rep1 in experiment [3] (replicate 1) was 108.84%. The compound also had a Tg_72h_%Growth_Rep2 in experiment [3] (replicate 2) of 94.24%.

`CC[C@H]1OC(=O)C[C@@H](O)[C@H](C)[C@@H](O[C@@H]2O[C@H](C)[C@@H](O[C@H]3C[C@@](C)(O)[C@@H](O)[C@H](C)O3)[C@H](N(C)C)[C@H]2O)[C@@H](CC=O)C[C@@H](C)C(=O)/C=C/C(C)=C/[C@@H]1CO[C@@H]1O[C@H](C)[C@@H](O)[C@@H](OC)[C@H]1OC` [Tylosin, reference compound]: the activity at 2 µg/mL in experiment [1] (Plasmodium falciparum, 3D7; P. falciparum, 2 μg/mL, 72 h; read-out: 1) Growth (%) at 72 h) is 39.2%; in experiment [1] (Plasmodium falciparum, 3D7, P. falciparum, 72 h, screen at 2 μg/mL, replicate 1, read-out: Pf_72h_%Growth_Rep1) it was 39.8%; in experiment [1] (Plasmodium falciparum, 3D7, P. falciparum, 72 h, screen at 2 μg/mL, replicate 2, read-out: Pf_72h_%Growth_Rep2), 38.7%; in experiment [2] (Plasmodium falciparum, 3D7; P. falciparum, 2 μg/mL, 120 h; read-out: 2) Growth (%) at 120 h), 17.3%; in experiment [2] (Plasmodium falciparum, 3D7, P. falciparum, 120 h, screen at 2 μg/mL, replicate 1, read-out: Pf_120h_%Growth_Rep1), 31.5%; in experiment [2] (Plasmodium falciparum, 3D7, P. falciparum, 120 h, screen at 2 μg/mL, replicate 2, read-out: Pf_120h_%Growth_Rep2), 3.04%. Moreover, the “3) Fold change (72 h/120 h)” value in experiment [2] (P. falciparum, growth at 72 h / growth at 120 h, 2 μg/mL) is 2.3. Further, the percent parasite growth at 2 µg/mL in experiment [3] (replicate 1, read-out: Tg_72h_%Growth_Rep1) stood at 29.4%; in experiment [3] (replicate 2, read-out: Tg_72h_%Growth_Rep2), 23.4%.

`CN[C@@H]1C[C@H]2O[C@@](C)([C@@H]1OC)n1c3ccccc3c3c4c(c5c6ccccc6n2c5c31)C(=O)N[C@H]4O` [UCN-01]: the Pf_72h_%Growth_Rep1 in experiment [1] (setting [4]) came out at 0.68%. Besides, the Pf_72h_%Growth_Rep2 in experiment [1] (setting [5]) is on record as -0.50%. The same compound came in with a Pf_120h_%Growth_Rep1 in experiment [2] (setting [6]) of 24.61%. Moreover, in experiment [2] (setting [7]), the Pf_120h_%Growth_Rep2 stood at 12.22%. The Tg_72h_%Growth_Rep1 in experiment [3] (replicate 1) amounted to 1.44%. This compound displayed a Tg_72h_%Growth_Rep2 in experiment [3] (replicate 2) of 1.53%.

Turning to `CN[C@@H]1C[C@H]2O[C@@](C)([C@@H]1OC)n1c3ccccc3c3c4c(c5c6ccccc6n2c5c31)C(=O)N[C@H]4O` [UCN-02], the Pf_72h_%Growth_Rep1 in experiment [1] (setting [4]) came to 0.18%. For the same compound, in experiment [1] (setting [5]), the Pf_72h_%Growth_Rep2 is recorded as -6.73%. The Pf_120h_%Growth_Rep1 in experiment [2] (setting [6]) came out at 30.31%. In experiment [2] (setting [7]), the Pf_120h_%Growth_Rep2 amounted to 6.39%. Moreover, the Tg_72h_%Growth_Rep1 in experiment [3] (replicate 1) is on record as 2.39%. Also, the Tg_72h_%Growth_Rep2 in experiment [3] (replicate 2) was found to be 1.72%.

With `CCOCCO[C@@H]1CC[C@@H](C[C@@H](C)[C@@H]2CC(=O)[C@H](C)/C=C(\C)[C@@H](O)[C@@H](OC)C(=O)[C@H](C)C[C@H](C)/C=C/C=C/C=C(\C)[C@@H](OC)C[C@@H]3CC[C@@H](C)[C@@](O)(O3)C(=O)C(=O)N3CCCC[C@H]3C(=O)O2)C[C@H]1OC` [Umirolimus, reference compound], the Mean in experiment [1] (P. falciparum, 72 h, 2 μg/mL, mean of both replicates, growth (% of control)) worked out at 22.90. In experiment [1] (setting [4]), the Pf_72h_%Growth_Rep1 worked out at 19.04%. The Pf_72h_%Growth_Rep2 in experiment [1] (setting [5]) stood at 26.75%. For the same compound, the Pf_120h_%Growth_Rep1 in experiment [2] (setting [6]) is listed as 49.79%. The Pf_120h_%Growth_Rep2 in experiment [2] (setting [7]) came to 32.58%. Also, the Tg_72h_%Growth_Rep1 in experiment [3] (replicate 1) amounted to 81.37%. In experiment [3] (replicate 2), the Tg_72h_%Growth_Rep2 came to 91.74%.

`C/C=C(\C)c1cc(O)c(C)c2c1Oc1cc(O)cc(C)c1C(=O)O2` [Unguinol]: the Pf_72h_%Growth_Rep1 in experiment [1] (setting [4]) stood at 95.05%. Further, the Pf_72h_%Growth_Rep2 in experiment [1] (setting [5]) is recorded as 130.12%. This compound displayed a Pf_120h_%Growth_Rep1 in experiment [2] (setting [6]) of 111.35%. The Pf_120h_%Growth_Rep2 in experiment [2] (setting [7]) is given as 108.43%. Moreover, the Tg_72h_%Growth_Rep1 in experiment [3] (replicate 1) is listed as 147.94%. In experiment [3] (replicate 2), this compound returned a Tg_72h_%Growth_Rep2 of 82.86%.

In experiment [1] (setting [4]), `CC(C)[C@H]1NC(=O)[C@H](Cc2ccccc2)NC(=O)[C@@H](C(C)C)NC(=O)[C@@H](C)NC(=O)CCCNC(=O)[C@@H](Cc2c[nH]c3ccccc23)NC(=O)[C@@H](C)NC1=O` [Unguisin A] (cyclo(F[dV][dA][dW][GABA][dA][dV])) gave a Pf_72h_%Growth_Rep1 of 89.83%. The Pf_72h_%Growth_Rep2 in experiment [1] (setting [5]) is 117.62%. The compound also had a Pf_120h_%Growth_Rep1 in experiment [2] (setting [6]) of 110.43%. Moreover, the Pf_120h_%Growth_Rep2 in experiment [2] (setting [7]) is -17.05%. Moreover, in experiment [3] (replicate 1), the Tg_72h_%Growth_Rep1 is listed as 121.37%. Further, in experiment [3] (replicate 2), the Tg_72h_%Growth_Rep2 is given as 69.01%.
